# Measured values: patent US20230041692A1, “NOVEL PEPTIDE HORMONES” (THE UNIVERSITY OF SYDNEY, priority 2019, published 2023)
# System: C57BL/6J male mice
# Assay: Crossover peptide injection trial in mice (food intake and body weight)
# Type: in vivo
# Settings: intraperitoneal injection at 5pm, change measured 16 h after injection, C57BL/6J male mice at 14 weeks, compared to vehicle injection
# Description: FIG. 6: Analysis of erusiolin producing cells, secretion in response to food and effects of erusiolin injection in mice. […] Staining is consistent with erusiolin positivity in rare enteroendocrine cell populations. […] Each line is one participant. […] Animals were randomised to the sequence of treatment days that were random in order, with washout days between injection treatment days. Peptides were injected at 5pm before the night phase and the change in body weight and food intake measured after 16 h. (n=14) ***P<0.001,*P<0.05. Erusiolin refers to the synthetic peptide of sequence APFLLEDPANQFLRL (SEQ ID NO: 2), DPP4-cleaved refers to the synthetic peptide of sequence FLLEDPANQFLRL (SEQ ID NO: 3).
# In these experiments “erusiolin” refers to the synthetic peptide of sequence APFLLEDPANQFLRL (SEQ ID NO: 2), “DPP4-cleaved” refers to the synthetic peptide of sequence FLLEDPANQFLRL (SEQ ID NO: 3). These peptides were synthesised and purified as the TFA-salt by a commercial supplier (Genscript), which generated 10 mg of each peptide at >90% purity. TFA removal and formation of the HCL-peptide salt was performed by freeze-drying the peptide solution (in LC-grade H2O) for 16 h and resuspension in 500 uL of 10 mM HC1 in LC-grade H2O. This solution was then freeze-dried for 16 h. A total of three rounds of 10 mM HC1 resuspension and freeze-drying for 16 h were performed. After the final drying step, the peptides were resuspended in LC-grade H2O. The peptide solutions were analysed for TFA contamination and determination of the peptide concentration using FT-IR spectroscopy. No TFA contamination was observed and the final peptide concentrations were 5 mg/mL in LC-grade H2O. Peptides were diluted in vehicle (1 mg/ml mouse albumin in PBS) before injection.
# C57BL/6J male mice at 14 weeks of age were treated with either vehicle, erusiolin, or the DPP4-cleaved peptide in a crossover trial study using intraperitoneal injection of the peptides. Each mouse was randomly allocated to a sequence of treatments. Each sequence had treatments in a random order. One treatment was performed per mouse per day and injections were at 5pm just before the night feeding period. Between each treatment day a washout day was included where no injection was performed to allow the previous days treatment to be degraded and minimise confounding effects. The food intake and body weight of each animal was measured just prior to injection and again 16 h after injection. This enable the calculation of the mass delta (change) for food intake and body mass. A repeated-measures one-way ANOVA was used to determine significance between the vehicle negative control treatment and the other treatments. Statistical analyses were performed using R (version 3.4.3) and processed data was plotted using Tableau (version 10.0.2). […]
Sequence,body weight,food intake
FLLEDPANQFLRL [DPP4-cleaved],not significant or less significant,not significant or less significant
APFLLEDPANQFLRL [erusiolin],significant decrease,significant decrease
